Measured values: US20260083865A1, “PROSTATE SPECIFIC MEMBRANE ANTIGEN (PSMA) LIGANDS AND USE THEREOF” (priority 2022, published 2026)
Read-outs that look alike come from different tables or passages of the source. Numbered stars: 1 amine (or outer) side, 2 acyl side, 3 side chain; on linkers, the order of the positions; unused ones are H or OH. Bridge positions count the residues as written; N and C are the ends. Square brackets hold non-standard residues; d marks the D form. Peptide text beside a SMILES is read from it. * marks the point of attachment. X3 = O=C(O)CN1CCN(CC(=O)O)CCN(CC(=O)NCCCOCCOCCOCCCN*)CCN(CC(=O)O)CC1; DOTA = O=C(O)CN1CCN(CC(=O)O)CCN(CC(=O)*)CCN(CC(=O)O)CC1; Phe(4-Cl) = N[C@@H](Cc1ccc(Cl)cc1)C(=O)O; X1 = O=C(CC1CCN([*:1])CC1)[*:2]; Suc = O=C(CCC(=O)[*:2])[*:1]; Tle = CC(C)(C)[C@H](N)C(=O)O; 4Abz = Nc1ccc(C(=O)O)cc1; Nle = CCCC[C@H](N)C(=O)O; Aib = CC(C)(N)C(=O)O; Guanidino = N=C(N)N*

Assays:
[1] = molecular target: T1, PSMA-expressing C4-2 cells (Homo sapiens, UniProt Q04609); experiment: FACS binding assay (competition with 50 nM PSM-0183)
T1 construct: PSMA-expressing C4-2 cells (ATCC, Cat. No. CRL-3314) were cultured in RPMI-1640; host or cells: C4-2 cells
T1 sequence (Q04609 whole entry): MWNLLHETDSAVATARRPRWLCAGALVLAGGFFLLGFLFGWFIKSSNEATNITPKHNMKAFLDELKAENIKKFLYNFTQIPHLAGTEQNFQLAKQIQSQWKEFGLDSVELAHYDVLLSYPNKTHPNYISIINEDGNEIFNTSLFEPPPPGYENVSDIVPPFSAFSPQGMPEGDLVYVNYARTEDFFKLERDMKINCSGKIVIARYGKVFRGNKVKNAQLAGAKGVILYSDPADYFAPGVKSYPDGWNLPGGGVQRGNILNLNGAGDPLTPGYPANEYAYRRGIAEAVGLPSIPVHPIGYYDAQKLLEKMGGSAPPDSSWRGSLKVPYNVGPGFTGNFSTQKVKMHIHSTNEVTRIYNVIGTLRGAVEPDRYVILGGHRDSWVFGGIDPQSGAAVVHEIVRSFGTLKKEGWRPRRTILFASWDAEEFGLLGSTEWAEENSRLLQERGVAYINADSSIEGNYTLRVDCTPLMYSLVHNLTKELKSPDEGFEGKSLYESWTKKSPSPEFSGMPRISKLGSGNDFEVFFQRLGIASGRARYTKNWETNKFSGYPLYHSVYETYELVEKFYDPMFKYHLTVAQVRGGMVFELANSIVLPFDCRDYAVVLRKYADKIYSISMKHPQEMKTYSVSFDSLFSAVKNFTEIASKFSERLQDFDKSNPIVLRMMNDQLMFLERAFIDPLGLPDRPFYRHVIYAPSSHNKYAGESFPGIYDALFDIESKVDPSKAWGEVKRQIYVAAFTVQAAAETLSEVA
Procedure, shortened: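 Competition format: fluorescent tracer PSM-0183 (50 nM) displaced from PSMA on C4-2 cells by a test compound titration over 1 h at 4 °C. Bound tracer was quantified as flow-cytometric AF488 median fluorescence after washing. Four-parameter logistic fits of MFI data gave IC50 and pIC50.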

[2] = molecular target: T2, Fc-fusion protein of human PSMA (hPSMA-Fc) (Homo sapiens, UniProt Q04609); experiment: Surface plasmon resonance assay (Biacore T200, single cycle kinetic); type: binding
T2 construct: purchased Acro Biosystems PSA-H5264
T2 sequence (Q04609 44-750 limits assumed): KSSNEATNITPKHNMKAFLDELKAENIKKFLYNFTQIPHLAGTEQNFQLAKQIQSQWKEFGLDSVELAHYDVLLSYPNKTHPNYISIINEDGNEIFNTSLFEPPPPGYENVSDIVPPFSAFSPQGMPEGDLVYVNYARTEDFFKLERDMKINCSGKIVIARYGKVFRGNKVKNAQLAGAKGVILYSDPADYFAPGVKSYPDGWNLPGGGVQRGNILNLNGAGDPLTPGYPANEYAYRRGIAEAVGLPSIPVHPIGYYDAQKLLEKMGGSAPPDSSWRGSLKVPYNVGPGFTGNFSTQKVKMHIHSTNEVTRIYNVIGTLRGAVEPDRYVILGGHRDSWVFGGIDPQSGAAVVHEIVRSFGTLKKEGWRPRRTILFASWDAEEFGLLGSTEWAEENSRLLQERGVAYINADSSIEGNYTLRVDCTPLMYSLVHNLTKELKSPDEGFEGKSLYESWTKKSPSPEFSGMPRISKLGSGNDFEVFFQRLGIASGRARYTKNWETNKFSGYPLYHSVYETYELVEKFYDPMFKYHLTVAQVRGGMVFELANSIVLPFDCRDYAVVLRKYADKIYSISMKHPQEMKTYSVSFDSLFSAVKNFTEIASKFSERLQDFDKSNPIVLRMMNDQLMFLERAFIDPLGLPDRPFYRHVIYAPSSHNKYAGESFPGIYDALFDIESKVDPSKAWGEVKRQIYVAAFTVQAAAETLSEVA
Procedure, shortened: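 KD, expressed as pKD, came from 1:1 Langmuir fits of reference- and buffer-blank-subtracted SPR data. The runs were single-cycle kinetics at 25° C in HBST/0.1% DMSO over human PSMA-Fc, captured to ~1000 RU on a peptide-coated CM5 surface and regenerated with 10 mM glycine pH 1.5.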

[3] = pIC50 category of FACS binding, C4-2 cells, read-out: pIC50 [C4-2] CAT (converted)
[4] = pKD category for PSMA SPR activity assay, hPSMA-Fc, 25° C., read-out: pKD CAT (converted)

SMILES | IC50 [1, 3] [nM] | Kd [2, 4] [nM] | further results
CC(=O)N[C@H](C(=O)NC(C)(C)C(=O)N[C@@H](Cc1ccccc1)C(=O)N[C@H]1CSSC[C@@H](C(=O)N[C@H](C(=O)NCC(N)=O)C(C)(C)C)NC(=O)[C@H](CC(N)=O)NC(=O)C(C)(C)NC(=O)[C@H](CCCNC(=N)N)NC(=O)[C@H](CCCCN)NC1=O)[C@@H](C)O [PSM-0477, Ac-Thr-Aib-Phe-[Cys-Lys-Arg-Aib-Asn-Cys]-Tle-Gly-NH2] (Ac-T[Aib]FCKR[Aib]NC[Tle]G-NH2; disulfide 4-9) | < 200 | < 12.6 | 
CC(=O)N[C@H](C(=O)NC(C)(C)C(=O)N[C@@H](Cc1ccccc1)C(=O)N[C@H]1CSSC[C@@H](C(=O)N[C@H](C(=O)N[C@@H](CC(C)C)C(N)=O)C(C)(C)C)NC(=O)[C@H](CC(N)=O)NC(=O)C(C)(C)NC(=O)[C@H](CCCNC(=N)N)NC(=O)[C@H](CCCCN)NC1=O)[C@@H](C)O [PSM-0453, Ac-Thr-Aib-Phe-[Cys-Lys-Arg-Aib-Asn-Cys]-Tle-Leu-NH2] (Ac-T[Aib]FCKR[Aib]NC[Tle]L-NH2; disulfide 4-9) | < 200 | < 12.6 | 
CC(=O)N[C@H](C(=O)NC(C)(C)C(=O)N[C@@H](Cc1ccccc1)C(=O)N[C@H]1CSSC[C@@H](C(=O)N[C@H](C(=O)N[C@H](C(=O)N[C@@H](CC(=O)O)C(N)=O)[C@@H](C)O)C(C)(C)C)NC(=O)[C@H](CC(N)=O)NC(=O)[C@H](C)NC(=O)[C@H](CCCNC(=N)N)NC(=O)[C@@H](CCCCN)NC1=O)[C@@H](C)O [PSM-0535, Ac-Thr-Aib-Phe-[Cys-lys-Arg-Ala-Asn-Cys]-Tle-Thr-Asp-NH2] (Ac-T[Aib]FC[dK]RANC[Tle]TD-NH2; disulfide 4-9) | 200 to 1260 | < 12.6 | 
C[C@@H](O)[C@H](NC(=O)[C@@H](NC(=O)[C@@H]1CSSC[C@H](NC(=O)[C@H](Cc2ccccc2)NC(=O)C(C)(C)NC(=O)[C@@H](NC(=O)c2ccc(NC(=O)CN3CCN(CC(=O)O)CCN(CC(=O)O)CCN(CC(=O)O)CC3)cc2)[C@@H](C)O)C(=O)N[C@@H](CCCCN)C(=O)N[C@@H](CCCNC(=N)N)C(=O)NC(C)(C)C(=O)N[C@@H](CC(N)=O)C(=O)N1)C(C)(C)C)C(N)=O [PSM-0448, DOTA-Pab-Thr-Aib-Phe-[Cys-Lys-Arg-Aib-Asn-Cys]-Tle-Thr-NH2] ({DOTA-4Abz}-T[Aib]FCKR[Aib]NC[Tle]T-NH2; disulfide 4-9) | < 200 | < 12.6 | 
CC(=O)NC(C)(C)C(=O)N[C@@H](Cc1ccc(Cl)cc1)C(=O)N[C@H]1CSSC[C@@H](C(=O)N[C@H](C(=O)N[C@H](C(=O)N2CCC(CC(=O)N[C@H](CCCCNC(=O)CN3CCN(CC(=O)O)CCN(CC(=O)O)CCN(CC(=O)O)CC3)C(N)=O)CC2)[C@@H](C)O)C(C)(C)C)NC(=O)[C@H](CC(N)=O)NC(=O)C(C)(C)NC(=O)[C@H](CCC(=O)NC(=N)N)NC(=O)[C@H](CCCCN)NC1=O [PSM-0494, Ac-Aib-Pcf-[Cys-Lys-Gln(Gu)-Aib-Asn-Cys]-Tle-Thr-Cmp-lys(DOTA)-NH2] (Ac-[Aib][Phe(4-Cl)]CKE(Guanidino)[Aib]NC[Tle]T[X1][dK](DOTA)-NH2; disulfide 3-8) |  |  | IC50 [1]: < 200 nM; Kd [2]: 12.6 to 126 nM
CC(=O)N[C@H](C(=O)NC(C)(C)C(=O)N[C@@H](Cc1ccccc1)C(=O)N[C@H]1CSSC[C@@H](C(=O)N[C@H](C(=O)N[C@H](C(=O)N[C@@H](CC(=O)O)C(N)=O)[C@@H](C)O)C(C)(C)C)NC(=O)[C@H](CC(N)=O)NC(=O)C(C)(C)NC(=O)[C@H](CCC(=O)O)NC(=O)[C@H](CCCCN)NC1=O)[C@@H](C)O [PSM-0253, Ac-Thr-Aib-Phe-[Cys-Lys-Glu-Aib-Asn-Cys]-Tle-Thr-Asp-NH2] (Ac-T[Aib]FCKE[Aib]NC[Tle]TD-NH2; disulfide 4-9) |  |  | IC50 ([1]; FACS binding, C4-2 cells, competition with 50 nM PSM-0183, category, read-out: pIC50 [C4-2] CAT (converted)): 200 to 1260 nM; Kd ([2]; SPR, hPSMA-Fc, single cycle kinetic, 25° C., category, read-out: pKD CAT (converted)): 126 to 501 nM
CCCC[C@H](NC(=O)[C@@H]1CSSC[C@H](NC(=O)[C@H](Cc2ccccc2)NC(=O)[C@H](C)NC(=O)[C@@H](NC(=O)CCC(=O)NCCCOCCOCCOCCCNC(=O)CN2CCN(CC(=O)O)CCN(CC(=O)O)CCN(CC(=O)O)CC2)[C@@H](C)O)C(=O)N[C@@H](CCCCN)C(=O)N[C@@H](CCCNC(=N)N)C(=O)N[C@@H](C)C(=O)N[C@@H](CC(N)=O)C(=O)N1)C(=O)N[C@H](C(=O)N[C@@H](CC(=O)O)C(N)=O)[C@@H](C)O [PSM-0504, DOTA-Ttds-Thr-Ala-Phe-[Cys-Lys-Arg-Ala-Asn-Cys]-Nle-Thr-Asp-NH2] ({X3-Suc}-TAFCKRANC[Nle]TD-NH2; disulfide 4-9) | 200 to 1260 | 12.6 to 126 | 
